Read-outs that look alike come from different tables or passages of the source.
Assay: acute toxicity (LD50) in mice
Conditions: mouse, in vivo
Procedure: The corresponding intravenous LD50 is 40 mg./kg. Other LD50 values for compounds of the invention when dosed intravenously are as follows: […]

[1] = iv, dosed intravenously (table 1), read-out: LD50

## CN1CCC2(CC1)c1ccccc1C(C)(O)c1c(O)cccc12 (centres unmarked) [Me 4-OH H OH Me, 4,10-dihydroxy-1',10-dimethyl-9,10-dihydroanthracene-9-spiro-4'-piperidine]
[1]
  LD50: 25 mg/kg

## Cc1ccc2c(c1)C1(CCN(C)CC1)c1ccccc1C2O (centres unmarked) [Me 2-Me H OH H, 1',2-dimethyl-10-hydroxy-9,10-dihydroanthracene-9-spiro-4'-piperidine]
[1]
  LD50: 37 mg/kg

## CN1CCC2(CC1)c1ccccc1C(O)c1ccccc12 [10-hydroxy-1'-methyl-9,10-dihydroanthracene-9-spiro-4'-piperidine]
mice, intravenous, read-out: intravenous LD50
  LD50: 40 mg/kg
mice, oral, read-out: oral LD50
  LD50: > 250 mg/kg

## CC(=O)Oc1cccc2c1Cc1ccccc1C21CCN(C)CC1 [Me 4-OAc H H H, 4-acetoxy-1'-methyl-9,10-dihydroanthracene-9-spiro-4'-piperidine]
[1]
  LD50: 43 mg/kg

From US3979513A, “1'-Substituted-9,10-dihydroanthracene-9-spiro-4'-piperidine derivatives” (priority 1974, dated 1976)
